Assays:
morningglory [1] = assay: Test C preemergence/postemergence greenhouse plant response rating 0 to 100; assay type: in vivo, Ipomoea hederacea; conditions: for Plant response rating, Morningglory: 125 g/ha, 0 to 100 scale
Method in brief: (§1)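 Compounds in non-phytotoxic solvent applied preemergence to sandy loam one day after planting, postemergence at the 1–4 leaf stage, or to ~2.5 cm floodwater over silt loam.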

lambsquarters = assay: as above; assay type: in vivo, Chenopodium album; conditions: for Plant response rating Lambsquarters: 125 g/ha, 0 to 100 scale
Method in brief: as §1

giant foxtail = assay: Test B preemergence/postemergence greenhouse plant response rating 0 to 10; assay type: in vivo, Setaria faberii; conditions: for Plant response rating, Giant foxtail: 0 to 10 scale
Method in brief: (§2)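 Both application timings were run together: seeds got compound preemergence, and established seedlings (two to eighteen cm) got it postemergence. Non-phytotoxic solvent carried the chemical. Ratings are visual, versus controls, at twelve to sixteen days.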

chickweed = assay: as above; assay type: in vivo, Stellaria media; conditions: for Plant response rating, Chickweed: 0 to 10 scale
Method in brief: as §2

rape = assay: as above; assay type: in vivo, Brassica napus; conditions: for Plant response rating, Rape: 0 to 10 scale
Method in brief: as §2

morningglory [2] = assay: as above; assay type: in vivo, Ipomoea hederacea; conditions: for Plant response rating, Morningglory: 0 to 10 scale
Method in brief: as §2

corn = assay: as above; assay type: in vivo, Zea mays; conditions: for Plant response rating, Corn: 0 to 10 scale
Method in brief: as §2

crabgrass = assay: as above; assay type: in vivo, Digitaria spp.; conditions: for Plant response rating, Crabgrass: 0 to 10 scale
Method in brief: as §2

cheatgrass = assay: as above; assay type: in vivo, Bromus secalinus; conditions: for Plant response rating, Cheatgrass: 0 to 10 scale
Method in brief: as §2

soybean = assay: Test C preemergence/postemergence greenhouse plant response rating 0 to 100; assay type: in vivo, Glycine max; conditions: for Plant response rating, Soybean: 125 g/ha, 0 to 100 scale
Method in brief: as §1

barley = assay: as above; assay type: in vivo, Hordeum vulgare; conditions: for Plant response rating Barley Igri: 125 g/ha, 0 to 100 scale
Method in brief: as §1

barnyardgrass = assay: Test B preemergence/postemergence greenhouse plant response rating 0 to 10; assay type: in vivo, Echinochloa crus-galli; conditions: for Plant response rating, Barnyardgrass: 0 to 10 scale
Method in brief: as §2

velvetleaf = assay: as above; assay type: in vivo, Abutilon theophrasti; conditions: for Plant response rating, Velvetleaf: 0 to 10 scale
Method in brief: as §2

CCOCOc1cc(-c2nn3c(c2Cl)CCCC3)c(F)cc1Cl [Compound 59]
Plant response rating, Morningglory (morningglory [1]; POSTEMERGENCE): 85 | Plant response rating (0 to 100), Morningglory (morningglory [1]; POSTEMERGENCE, Rate 2 g/ha): 70 | Plant response rating, Morningglory (morningglory [1]; PREEMERGENCE): 10 | Plant response rating (0 to 100), Morningglory (morningglory [1]; PREEMERGENCE, Rate 2 g/ha): 0 | Plant response rating (0 to 100), Morningglory (morningglory [1]; Rate 8 g/ha, POSTEMERGENCE): 70 | Plant response rating (0 to 100), Morningglory (morningglory [1]; Rate 8 g/ha, PREEMERGENCE): 0 | Plant response rating (0 to 100), Morningglory (morningglory [1]; Rate 31 g/ha, POSTEMERGENCE): 85 | Plant response rating (0 to 100), Morningglory (morningglory [1]; Rate 31 g/ha, PREEMERGENCE): 10 | Plant response rating Lambsquarters (lambsquarters; POSTEMERGENCE): 95 | Plant response rating (0 to 100), Lambsquarters (lambsquarters; POSTEMERGENCE, Rate 2 g/ha): 30 | Plant response rating Lambsquarters (lambsquarters; PREEMERGENCE): 100 | Plant response rating (0 to 100), Lambsquarters (lambsquarters; PREEMERGENCE, Rate 2 g/ha): 0 | Plant response rating (0 to 100), Lambsquarters (lambsquarters; Rate 8 g/ha, POSTEMERGENCE): 70 | Plant response rating (0 to 100), Lambsquarters (lambsquarters; Rate 8 g/ha, PREEMERGENCE): 95 | Plant response rating (0 to 100), Lambsquarters (lambsquarters; Rate 31 g/ha, POSTEMERGENCE): 85 | Plant response rating (0 to 100), Lambsquarters (lambsquarters; Rate 31 g/ha, PREEMERGENCE): 100 | Plant response rating, Giant foxtail (giant foxtail; POSTEMERGENCE, Rate 50 g/ha): 6 | Plant response rating, Giant foxtail (giant foxtail; PREEMERGENCE, Rate 50 g/ha): 9 | Plant response rating (0 to 10 scale), Giant foxtail (giant foxtail; PREEMERGENCE, Rate 200 g/ha): 10 | Plant response rating, Giant foxtail (giant foxtail; Rate 200 g/ha, POSTEMERGENCE): 7 | Plant response rating, Chickweed (chickweed; POSTEMERGENCE, Rate 50 g/ha): 6 | Plant response rating, Chickweed (chickweed; PREEMERGENCE, Rate 50 g/ha): 4 | Plant response rating (0 to 10 scale), Chickweed (chickweed; PREEMERGENCE, Rate 200 g/ha): 9 | Plant response rating, Chickweed (chickweed; Rate 200 g/ha, POSTEMERGENCE): 8 | Plant response rating, Rape (rape; POSTEMERGENCE, Rate 50 g/ha): 10 | Plant response rating, Rape (rape; PREEMERGENCE, Rate 50 g/ha): 5 | Plant response rating (0 to 10 scale), Rape (rape; PREEMERGENCE, Rate 200 g/ha): 10 | Plant response rating, Rape (rape; Rate 200 g/ha, POSTEMERGENCE): 10 | Plant response rating, Morningglory (morningglory [2]; POSTEMERGENCE, Rate 50 g/ha): 8 | Plant response rating, Morningglory (morningglory [2]; PREEMERGENCE, Rate 50 g/ha): 2 | Plant response rating (0 to 10 scale), Morningglory (morningglory [2]; PREEMERGENCE, Rate 200 g/ha): 6 | Plant response rating, Morningglory (morningglory [2]; Rate 200 g/ha, POSTEMERGENCE): 10 | Plant response rating, Corn (corn; POSTEMERGENCE, Rate 50 g/ha): 4 | Plant response rating, Corn (corn; PREEMERGENCE, Rate 50 g/ha): 1 | Plant response rating (0 to 10 scale), Corn (corn; PREEMERGENCE, Rate 200 g/ha): 2 | Plant response rating, Corn (corn; Rate 200 g/ha, POSTEMERGENCE): 5 | Plant response rating, Crabgrass (crabgrass; POSTEMERGENCE, Rate 50 g/ha): 4 | Plant response rating, Crabgrass (crabgrass; PREEMERGENCE, Rate 50 g/ha): 5 | Plant response rating (0 to 10 scale), Crabgrass (crabgrass; PREEMERGENCE, Rate 200 g/ha): 10 | Plant response rating, Crabgrass (crabgrass; Rate 200 g/ha, POSTEMERGENCE): 5 | Plant response rating, Cheatgrass (cheatgrass; POSTEMERGENCE, Rate 50 g/ha): 4 | Plant response rating, Cheatgrass (cheatgrass; PREEMERGENCE, Rate 50 g/ha): 4 | Plant response rating (0 to 10 scale), Cheatgrass (cheatgrass; PREEMERGENCE, Rate 200 g/ha): 5 | Plant response rating, Cheatgrass (cheatgrass; Rate 200 g/ha, POSTEMERGENCE): 6 | Plant response rating, Soybean (soybean; POSTEMERGENCE): 70 | Plant response rating (0 to 100), Soybean (soybean; POSTEMERGENCE, Rate 2 g/ha): 30 | Plant response rating, Soybean (soybean; PREEMERGENCE): 0 | Plant response rating (0 to 100), Soybean (soybean; PREEMERGENCE, Rate 2 g/ha): 0 | Plant response rating (0 to 100), Soybean (soybean; Rate 8 g/ha, POSTEMERGENCE): 50 | Plant response rating (0 to 100), Soybean (soybean; Rate 8 g/ha, PREEMERGENCE): 0 | Plant response rating (0 to 100), Soybean (soybean; Rate 31 g/ha, POSTEMERGENCE): 60 | Plant response rating (0 to 100), Soybean (soybean; Rate 31 g/ha, PREEMERGENCE): 0 | Plant response rating Barley Igri (barley; POSTEMERGENCE): 60 | Plant response rating (0 to 100), Barley Igri (barley; POSTEMERGENCE, Rate 2 g/ha): 30 | Plant response rating Barley Igri (barley; PREEMERGENCE): 10 | Plant response rating (0 to 100), Barley Igri (barley; PREEMERGENCE, Rate 2 g/ha): 0 | Plant response rating (0 to 100), Barley Igri (barley; Rate 8 g/ha, POSTEMERGENCE): 40 | Plant response rating (0 to 100), Barley Igri (barley; Rate 8 g/ha, PREEMERGENCE): 0 | Plant response rating (0 to 100), Barley Igri (barley; Rate 31 g/ha, POSTEMERGENCE): 50 | Plant response rating (0 to 100), Barley Igri (barley; Rate 31 g/ha, PREEMERGENCE): 0 | Plant response rating, Barnyardgrass (barnyardgrass; POSTEMERGENCE, Rate 50 g/ha): 5 | Plant response rating, Barnyardgrass (barnyardgrass; PREEMERGENCE, Rate 50 g/ha): 6 | Plant response rating (0 to 10 scale), Barnyardgrass (barnyardgrass; PREEMERGENCE, Rate 200 g/ha): 8 | Plant response rating, Barnyardgrass (barnyardgrass; Rate 200 g/ha, POSTEMERGENCE): 9 | Plant response rating, Velvetleaf (velvetleaf; POSTEMERGENCE, Rate 50 g/ha): 8 | Plant response rating, Velvetleaf (velvetleaf; PREEMERGENCE, Rate 50 g/ha): 10 | Plant response rating (0 to 10 scale), Velvetleaf (velvetleaf; PREEMERGENCE, Rate 200 g/ha): 10 | Plant response rating, Velvetleaf (velvetleaf; Rate 200 g/ha, POSTEMERGENCE): 10

From patent US6358885B1, “Substituted phenylheterocyclic herbicides” (Mississippi State University, priority 1992, dated 2002)
